According to US20050197338A1, “Substituted pyrazole urea compounds for the treatment of inflammation” (priority 2003, published 2005):

Biological target: T1, human IKK-2 (rhIKK-2 homodimer) (Homo sapiens, UniProt O14920)
T1 construct: FLAG (DYKDDDDKD) (C); made in house; host or cells: insect cells (baculovirus, pFastBac)
T1 sequence (O14920 1-756): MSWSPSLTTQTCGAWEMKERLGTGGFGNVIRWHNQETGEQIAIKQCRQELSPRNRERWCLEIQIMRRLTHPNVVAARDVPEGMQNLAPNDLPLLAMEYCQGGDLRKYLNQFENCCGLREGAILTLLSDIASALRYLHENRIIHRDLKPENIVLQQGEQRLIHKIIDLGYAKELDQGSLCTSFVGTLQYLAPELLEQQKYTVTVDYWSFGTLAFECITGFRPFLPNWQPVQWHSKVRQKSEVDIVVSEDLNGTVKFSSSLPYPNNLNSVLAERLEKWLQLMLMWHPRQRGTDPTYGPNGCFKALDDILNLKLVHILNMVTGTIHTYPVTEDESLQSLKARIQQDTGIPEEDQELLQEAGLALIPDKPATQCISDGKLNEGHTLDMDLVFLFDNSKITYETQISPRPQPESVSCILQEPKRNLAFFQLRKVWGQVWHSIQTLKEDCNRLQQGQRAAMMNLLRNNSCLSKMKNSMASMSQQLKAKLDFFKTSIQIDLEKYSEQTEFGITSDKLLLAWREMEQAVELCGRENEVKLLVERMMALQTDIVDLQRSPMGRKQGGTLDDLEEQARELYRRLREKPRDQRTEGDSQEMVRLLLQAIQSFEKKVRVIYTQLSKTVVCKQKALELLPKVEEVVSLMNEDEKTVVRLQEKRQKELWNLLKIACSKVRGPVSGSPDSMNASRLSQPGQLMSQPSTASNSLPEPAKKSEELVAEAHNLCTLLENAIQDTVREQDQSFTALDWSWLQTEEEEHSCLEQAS
Experiment: IKK-2 Resin Enzyme Assay (Human IKK-2 Enzyme Assay)
Format: biochemical
Details: human IKK-2, resin enzyme assay; read-out: IC50 (μM) hIKK-2
Outline: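 C-terminally FLAG-tagged human IKK-2 homodimer, baculovirus-expressed in insect cells and anti-FLAG purified. Reaction mix: 5 μM biotinylated IκBα peptide (Ser32/Ser36 region), 1 μM ATP with [γ-33P]ATP, 2 mM MgCl2, 2 mM MnCl2, 10 mM NaF, 1 mM DTT, 25 mM HEPES pH 7.6. Incubated 30 min at 25 °C; IC50 derived.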

Row | SMILES | IC50 [µM]
1 | Cc1cc(-c2cccc(O)c2)ccc1-n1cc(NC(N)=O)c(C(N)=O)n1 [Example 5, 4-[(aminocarbonyl)amino]-1-(3′-hydroxy-3-methyl-1,1′-biphenyl-4-yl)-1H-pyrazole-3-carboxamide] | 5.09
2 | NC(=O)Nc1cn(-c2ccc(-c3ccccc3)cc2)nc1C(N)=O [Example 101, 4-[(aminocarbonyl)amino]-1-(1,1′-biphenyl-4-yl)-1H-pyrazole-3-carboxamide] | 8.07
3 | Cc1cc(I)ccc1-n1cc(NC(N)=O)c(C(N)=O)n1 [Example 4, 1-(4-iodo-2-methyl-phenyl)-4-ureido-1H-pyrazole-3-carboxylic acid amide] | 2.87
4 | NC(=O)Nc1cn(-c2ccc(Sc3ccccn3)cc2)nc1C(N)=O [Example 205, 1-(3-carbamoyl-1-(4-(pyridin-2-ylthio)phenyl)-1H-pyrazol-4-yl)urea] | 1.13
5 | CCOc1cc(-n2cc(NC(N)=O)c(C(N)=O)n2)ccc1Br [Example 3, 4-[(aminocarbonyl)amino]-1-(4-bromo-3-ethoxyphenyl)-1H-pyrazole-3-carboxamide] | 1.35
6 | CNC(=O)Nc1cn(-c2ccc(Br)cc2)nc1C(N)=O [Example 16, 1-(4-bromophenyl)-4-{[(methylamino)carbonyl]amino}-1H-pyrazole-3-carboxamide] | 3.1
7 | NC(=O)Nc1cn(-c2ccc(-c3ccc(C(=O)OCc4cccc(F)c4)c(F)c3)cc2)nc1C(N)=O [Example 163, 3-fluorobenzyl 4′-{3-(aminocarbonyl)-4-[(aminocarbonyl)amino]-1H-pyrazol-1-yl}-3-fluoro-1,1′-biphenyl-4-carboxylate] | 16.6
8 | NC(=O)Nc1cn(-c2ccc(-c3ccc(C(=O)OCc4ccccc4F)c(F)c3)cc2)nc1C(N)=O [Example 162, 2-fluorobenzyl 4′-{3-(aminocarbonyl)-4-[(aminocarbonyl)amino]-1H-pyrazol-1-yl}-3-fluoro-1,1′-biphenyl-4-carboxylate] | 13.7
9 | NC(=O)Nc1cn(-c2ccc(-c3cc4ccccc4[nH]3)cc2)nc1C(N)=O [Example 141, 4-[(aminocarbonyl)amino]-1-[4-(1H-indol-2-yl)phenyl]-1H-pyrazole-3-carboxamide] | 11.4
10 | N#Cc1ccc(-c2ccc(-n3cc(NC(N)=O)c(C(N)=O)n3)cc2)cc1 [Example 100, 4-[(aminocarbonyl)amino]-1-(4′-cyano-1,1′-biphenyl-4-yl)-1H-pyrazole-3-carboxamide] | 1.15
11 | NC(=O)Nc1cn(-c2ccc(-c3ccc(C(=O)OCc4ccc(F)cc4)c(F)c3)cc2)nc1C(N)=O [Example 164, 4-fluorobenzyl 4′-{3-(aminocarbonyl)-4-[(aminocarbonyl)amino]-1H-pyrazol-1-yl}-3-fluoro-1,1′-biphenyl-4-carboxylate] | 11.3
12 | CC(C)(C)OC(=O)COc1cccc(-c2ccc(-n3cc(NC(N)=O)c(C(N)=O)n3)cc2)c1 [Example 174, tert-butyl [(4′-{3-(aminocarbonyl)-4-[(aminocarbonyl)amino]-1H-pyrazol-1-yl}-1,1′-biphenyl-3-yl)oxy]acetate] | 3.67
13 | NC(=O)Nc1cn(-c2cccc(-c3ccc(F)cc3O)c2)nc1C(N)=O [Example 92, 4-[(aminocarbonyl)amino]-1-(4′-fluoro-2′-hydroxy-1,1′-biphenyl-3-yl)-1H-pyrazole-3-carboxamide] | 6.61
14 | CNC(=O)Nc1cn(-c2cccc(Br)c2)nc1C(N)=O [Example 15, 1-(3-bromophenyl)-4-{[(methylamino)carbonyl]amino}-1H-pyrazole-3-carboxamide] | 8.05
15 | CN(C)CCN(C)C(=O)c1ccc(-c2ccc(-n3cc(NC(N)=O)c(C(N)=O)n3)cc2)cc1F [Example 160, 4-[(aminocarbonyl)amino]-1-(4′-{[[2-(dimethylamino)ethyl](methyl)amino]carbonyl}-3′-fluoro-1,1′-biphenyl-4-yl)-1H-pyrazole-3-carboxamide] | 4.79
16 | NC(=O)Nc1cn(-c2cccc(-c3cc(F)ccc3O)c2)nc1C(N)=O [Example 93, 4-[(aminocarbonyl)amino]-1-(5′-fluoro-2′-hydroxy-1,1′-biphenyl-3-yl)-1H-pyrazole-3-carboxamide] | 3.1

Stronger by IC50, values ahead:

Row | IC50 [µM] | SMILES
17 | 0.013 | NC(=O)Nc1cn(-c2ccc(S(=O)(=O)c3ccc(F)cc3)cc2)nc1C(N)=O [Example 204, 1-(1-(4-(4-fluorophenylsulfonyl)phenyl)-3-carbamoyl-1H-pyrazol-4-yl)urea]
18 | 1.04 | COc1ccc(-n2cc(NC(N)=O)c(C(N)=O)n2)cc1Cl [Example 209, 4-[(Aminocarbonyl)amino]-1-(3-chloro-4-methoxyphenyl)-1H-pyrazole-3-carboxamide]
19 | 0.22 | N#CCOc1ccc(F)cc1-c1cccc(-n2cc(NC(N)=O)c(C(N)=O)n2)c1 [Example 94, 4-[(aminocarbonyl)amino]-1-[2′-(cyanomethoxy)-5′-fluoro-1,1′-biphenyl-3-yl]-1H-pyrazole-3-carboxamide]
20 | 0.821 | NC(=O)Nc1cn(-c2ccc(-c3ccc(-c4nnn[nH]4)cc3)cc2)nc1C(N)=O [Example 187, 4-[(aminocarbonyl)amino]-1-[4′-(1H-tetrazol-5-yl)-1,1′-biphenyl-4-yl]-1H-pyrazole-3-carboxamide]
21 | 0.14 | NC(=O)Nc1cn(-c2ccc(-c3ccc(C(=O)O)c(F)c3)cc2)nc1C(N)=O [Example 97, 4′-{3-(aminocarbonyl)-4-[(aminocarbonyl)amino]-1H-pyrazol-1-yl}-3-fluoro-1,1′-biphenyl-4-carboxylic acid]
22 | 0.18 | NC(=O)COc1cccc(-c2ccc(-n3cc(NC(N)=O)c(C(N)=O)n3)cc2)c1 [Example 175, 4-[(aminocarbonyl)amino]-1-[3′-(2-amino-2-oxoethoxy)-1,1′-biphenyl-4-yl]-1H-pyrazole-3-carboxamide]
23 | 0.322 | NC(=O)Nc1cn(-c2ccc(I)cc2)nc1C(N)=O [Example 215, 4-[(aminocarbonyl)amino]-1-(4-iodophenyl)-1H-pyrazole-3-carboxamide]
24 | 0.307 | NC(=O)Nc1cn(-c2ccc(Br)c(C(F)(F)F)c2)nc1C(N)=O [Example 1, 4-[(aminocarbonyl)amino]-1-[4-bromo-3-(trifluoromethyl)phenyl]-1H-pyrazole-3-carboxamide]
25 | 0.15 | NC(=O)Nc1cn(-c2ccc(S(=O)(=O)c3ccccc3F)cc2)nc1C(N)=O [Example 194, 1-(1-(4-(2-fluorophenylsulfonyl)phenyl)-3-carbamoyl-1H-pyrazol-4-yl)urea]
26 | 0.15 | N#CCOc1cc(F)ccc1-c1ccc(-n2cc(NC(N)=O)c(C(N)=O)n2)cc1 [Example 173, 4-[(aminocarbonyl)amino]-1-[2′-(cyanomethoxy)-4′-fluoro-1,1′-biphenyl-4-yl]-1H-pyrazole-3-carboxamide]
27 | 0.378 | NC(=O)Nc1cn(-c2ccc(Br)c(F)c2)nc1C(N)=O [Example 225, 4-[(aminocarbonyl)amino]-1-(4-bromo-3-fluorophenyl)-1H-pyrazole-3-carboxamide]
28 | 0.457 | NC(=O)Nc1cn(-c2ccc(-c3cccc(O)c3)cc2F)nc1C(N)=O [Example 247, 4-[(aminocarbonyl)amino]-1-(3-fluoro-3′-hydroxy-1,1′-biphenyl-4-yl)-1H-pyrazole-3-carboxamide]
29 | 0.044 | N#CCOc1ccc(F)cc1-c1ccc(-n2cc(NC(N)=O)c(C(N)=O)n2)cc1 [Example 172, 4-[(aminocarbonyl)amino]-1-[2′-(cyanomethoxy)-5′-fluoro-1,1′-biphenyl-4-yl]-1H-pyrazole-3-carboxamide]
30 | 0.75 | NC(=O)Nc1cn(-c2ccc(-c3cc(F)ccc3O)cc2)nc1C(N)=O [Example 99, 4-[(aminocarbonyl)amino]-1-(5′-fluoro-2′-hydroxy-1,1′-biphenyl-4-yl)-1H-pyrazole-3-carboxamide]
31 | 0.86 | N#CCCc1cccc(-c2ccc(-n3cc(NC(N)=O)c(C(N)=O)n3)cc2)c1 [Example 186, 4-[(aminocarbonyl)amino]-1-[3′-(2-cyanoethyl)-1,1′-biphenyl-4-yl]-1H-pyrazole-3-carboxamide]
32 | 0.355 | NC(=O)Nc1cn(-c2ccc(-c3cccc(O)c3)c(Cl)c2)nc1C(N)=O [Example 7, 4-[(aminocarbonyl)amino]-1-(2-chloro-3′-hydroxy-1,1′-biphenyl-4-yl)-1H-pyrazole-3-carboxamide]
33 | 0.31 | NC(=O)Nc1cn(-c2ccc(Br)cc2)nc1C(N)=O [Example 19, 1-(1-(4-bromophenyl)-3-carbamoyl-1H-pyrazol-4-yl)urea]
34 | 0.237 | NC(=O)Nc1cn(-c2ccc(S(=O)(=O)C3CCCCC3)cc2)nc1C(N)=O [Example 192, 1-(3-carbamoyl-1-(4-(cyclohexylsulfonyl)phenyl)-1H-pyrazol-4-yl)urea]
